Results published in ChEMBL document CHEMBL3393026, “A selective small molecule NOP (ORL-1 receptor) partial agonist for the treatment of anxiety” (Bioorg Med Chem Lett, 2015).

What was measured:
Rattus norvegicus [1] = assay: Anxiolytic activity in Long-Evans hooded rat assessed as open arm time at 0.03 mg/kg, ip by elevated plus maze test; type: functional; details: route intraperitoneal
Rattus norvegicus [2] = assay: Anxiolytic activity in Long-Evans hooded rat assessed as open arm time at 0.1 mg/kg, ip by elevated plus maze test; type: functional; details: route intraperitoneal
Rattus norvegicus [3] = assay: Anxiolytic activity in Long-Evans hooded rat assessed as open arm time at 0.3 mg/kg, ip by elevated plus maze test; type: functional; details: route intraperitoneal
Rattus norvegicus [4] = assay: Anxiolytic activity in Long-Evans hooded rat assessed as open arm time at 1 mg/kg, ip by elevated plus maze test; type: functional; details: route intraperitoneal
Rattus norvegicus [5] = assay: Anxiolytic activity in Long-Evans hooded rat assessed as open arm time at 3 mg/kg, ip by elevated plus maze test; type: functional; details: route intraperitoneal
Rattus norvegicus [6] = assay: Sedative activity in Long-Evans hooded rat assessed as vertical movements at 0.03 mg/kg, ip by spontaneous locomotor activity test; type: organism-based; design: dose 0.03 mg/kg, route intraperitoneal; details: in vivo
Rattus norvegicus [7] = assay: Sedative activity in Long-Evans hooded rat assessed as vertical movements at 0.1 mg/kg, ip by spontaneous locomotor activity test; type: organism-based; design: dose 0.1 mg/kg, route intraperitoneal; details: in vivo
Rattus norvegicus [8] = assay: Sedative activity in Long-Evans hooded rat assessed as vertical movements at 0.3 mg/kg, ip by spontaneous locomotor activity test; type: organism-based; design: dose 0.3 mg/kg, route intraperitoneal; details: in vivo
Rattus norvegicus [9] = assay: Sedative activity in Long-Evans hooded rat assessed as vertical movements at 1 mg/kg, ip by spontaneous locomotor activity test; type: organism-based; design: dose 1 mg/kg, route intraperitoneal; details: in vivo
Rattus norvegicus [10] = assay: Sedative activity in Long-Evans hooded rat assessed as vertical movements at 3 mg/kg, ip by spontaneous locomotor activity test; type: organism-based; design: dose 3 mg/kg, route intraperitoneal; details: in vivo
Rattus norvegicus [11] = assay: Sedative activity in Long-Evans hooded rat assessed as vertical movements at 10 mg/kg, ip by spontaneous locomotor activity test; type: organism-based; design: dose 10 mg/kg, route intraperitoneal; details: in vivo
Rattus norvegicus [12] = assay: Anxiolytic activity in Long-Evans hooded rat assessed as open arm time at 0.5 mg/kg, ip by elevated plus maze test; type: functional; details: route intraperitoneal
Rattus norvegicus [13] = assay: Sedative activity in Long-Evans hooded rat assessed as vertical movements at 0.5 mg/kg, ip by spontaneous locomotor activity test; type: organism-based; design: dose 0.5 mg/kg, route intraperitoneal; details: in vivo

Compound | Activity (Rattus norvegicus [1]) | Activity (Rattus norvegicus [2]) | Activity (Rattus norvegicus [3]) | Activity (Rattus norvegicus [4]) | Activity (Rattus norvegicus [5]) | Activity (Rattus norvegicus [6]) | Activity (Rattus norvegicus [7]) | Activity (Rattus norvegicus [8]) | Activity (Rattus norvegicus [9]) | Activity (Rattus norvegicus [10]) | Activity (Rattus norvegicus [11]) | Activity (Rattus norvegicus [12]) | Activity (Rattus norvegicus [13])
CCCCN(Cc1ccccc1)C[C@H](O)CN1CN(c2ccc(F)cc2)C2(CCN(CC3CCCCCCC3)CC2)C1=O | 5.9% | 72.5% | 54.4% | 57.8% | 24% | -0.4% | 11.4% | 16% | 7.6% | 2.2% | -6.2% |  | 
O=C1Nc2ccc(Cl)cc2C(c2ccccc2Cl)=NC1O (stereo not drawn) [LORAZEPAM] |  |  |  |  |  |  |  |  |  |  |  | 222.4% | -72%
